This passage reports TGI and GI50 results from PubChem BioAssay (NCI).

Among the test systems are 786-0 renal; CAKI-1 renal; EKVX NSCLC; HT29 colon; M14 melanoma; OVCAR-5 ovarian; OVCAR-8 ovarian; SW-620 colon; TK-10 renal; HCT-116 colon.
Experiment in all cases: inhibition of tumour cell growth, NCI panel, 48 h

SMILES strings stand for the structures.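 Results reflect a 48-hour exposure of cells in 96-well plates to compound at five concentrations. GI50 marks 50% less growth. TGI denotes the concentration required for complete inhibition of growth.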

Regarding `CCOP(=O)(Cc1ccc(CP(=O)(OCC)OCC)n1C)OCC`, the TGI in the assay on 786-0 renal, in the assay with CAKI-1 renal, in the assay with EKVX NSCLC, in the assay on HT29 colon, in the assay on M14 melanoma and in the assay on OVCAR-5 ovarian was above 100 µM each time. Further, the TGI in the assay on OVCAR-8 ovarian, in the assay on SW-620 colon and with TK-10 renal was above 100 µM each time.

With `C/C(=C\CCc1ccoc1)CC/C=C(\C)CCCC1=CC(=O)OC1`, the GI50 with 786-0 renal was 9.16 µM; with CAKI-1 renal, 5.01 µM; in the assay on HCT-116 colon, 4.02 µM; in the assay with M14 melanoma, 7.28 µM; with OVCAR-5 ovarian, 12.5 µM; in the assay on OVCAR-8 ovarian it was 5.11 µM. For the same compound, the GI50 in the assay with SW-620 colon was 12.1 µM; in the assay on TK-10 renal, 16.9 µM. Besides, the TGI is 42.2 µM in the assay with 786-0 renal; above 100 µM in the assay on CAKI-1 renal; 18.8 µM in the assay with HCT-116 colon; 45 µM with M14 melanoma; 68.9 µM in the assay on OVCAR-5 ovarian; 29.8 µM in the assay with OVCAR-8 ovarian. Further, the TGI in the assay with SW-620 colon is above 100 µM; in the assay on TK-10 renal, 63.9 µM.

As to `O=C1c2ccccc2C2(Br)C(=O)c3ccccc3C12` (centres undefined), the TGI in the assay with 786-0 renal, with CAKI-1 renal, in the assay on EKVX NSCLC, in the assay on HT29 colon, in the assay with M14 melanoma and with OVCAR-5 ovarian was above 100 µM each time. Also, the TGI in the assay with OVCAR-8 ovarian, in the assay with SW-620 colon and in the assay on TK-10 renal was above 100 µM each time.

Regarding `Cn1cc(C2=C(c3ccc4ccccc4c3)C(=O)NC2=O)c2ccccc21`, the GI50 was above 25 µM with 786-0 renal; above 16.7 µM with CAKI-1 renal; 15.6 µM in the assay with HCT-116 colon; 9.87 µM with HT29 colon; above 21 µM in the assay on M14 melanoma; above 25 µM in the assay on OVCAR-5 ovarian. Moreover, the GI50 in the assay with OVCAR-8 ovarian is above 25 µM; in the assay with SW-620 colon, 8.28 µM; with TK-10 renal it was above 25 µM. Also, the TGI with 786-0 renal, with CAKI-1 renal, with HCT-116 colon, in the assay on HT29 colon, in the assay with M14 melanoma and with OVCAR-5 ovarian was above 25 µM in each case. The TGI with OVCAR-8 ovarian, in the assay on SW-620 colon and in the assay with TK-10 renal was above 25 µM each time.

As to `Cc1ccccc1N1C(=O)/C(=C/c2ccc(N(CCC#N)CCC#N)cc2)N=C1c1cc([N+](=O)[O-])ccc1Cl`, the TGI in the assay with 786-0 renal, in the assay with CAKI-1 renal, with HT29 colon, with M14 melanoma, in the assay on OVCAR-5 ovarian and in the assay with SW-620 colon was above 100 µM each time.

Turning to `CCN1CCN(c2ccc(Nc3cc(N(C)C(=O)Nc4c(Cl)c(OC)cc(OC)c4Cl)ncn3)cc2)CC1`, the GI50 in the assay on 786-0 renal was 1.88 µM; in the assay on CAKI-1 renal it was 4.19 µM; in the assay with HCT-116 colon, 1.73 µM; in the assay with HT29 colon it was 1.55 µM; with M14 melanoma, 1.45 µM; in the assay with OVCAR-5 ovarian, 3.7 µM. Moreover, the GI50 in the assay on OVCAR-8 ovarian is 3.07 µM; in the assay on SW-620 colon, 2.42 µM; in the assay with TK-10 renal it was 2.5 µM. Further, the TGI was 4.27 µM in the assay with 786-0 renal; above 48.2 µM in the assay on CAKI-1 renal; 5.2 µM in the assay on HCT-116 colon; 3.69 µM in the assay with HT29 colon; 3.1 µM in the assay with M14 melanoma; 14.7 µM with OVCAR-5 ovarian. Moreover, the TGI with OVCAR-8 ovarian amounted to 22.9 µM; in the assay on SW-620 colon it was 9.76 µM; in the assay on TK-10 renal, 12.5 µM.

In the case of `COc1ccc(C2S/C(=C\c3ccccc3O)C(=O)N2NC(=O)Cc2ccccc2)cc1` (centres undefined), the TGI with 786-0 renal, in the assay with CAKI-1 renal, in the assay on HCT-116 colon, with HT29 colon, with M14 melanoma and in the assay with OVCAR-5 ovarian was above 100 µM in each case. The TGI with OVCAR-8 ovarian, in the assay with SW-620 colon and with TK-10 renal was above 100 µM in each case.

In the case of `Clc1ccc2c(NCCCNc3nccc(Nc4ccc(Br)cc4)n3)ccnc2c1`, the GI50 is 1.75 µM in the assay with 786-0 renal; 1.53 µM in the assay on CAKI-1 renal; 1.36 µM in the assay with HCT-116 colon; 1.26 µM in the assay on HT29 colon; 1.71 µM with M14 melanoma; 1.63 µM with OVCAR-5 ovarian. In addition, the GI50 in the assay on SW-620 colon is 1.58 µM; in the assay on TK-10 renal, 1.83 µM. Moreover, the TGI in the assay with 786-0 renal is 3.45 µM; with CAKI-1 renal, 3 µM; with HCT-116 colon it was 3.08 µM; in the assay on HT29 colon, 2.67 µM; with M14 melanoma, 3.5 µM; in the assay on OVCAR-5 ovarian it was 3.18 µM. Besides, the results for the TGI in the assay with SW-620 colon and in the assay with TK-10 renal were 3.3 µM and 3.26 µM, respectively.

With `C=C(C=O)C1CCC2(C(=O)O)CCC3(C)C(CCC4C5(C)CCC(O)C(C)(C)C5CCC43C)C12` (centres undefined), the GI50 with 786-0 renal is 2.48 µM; with EKVX NSCLC, 6.23 µM; with HCT-116 colon, 1.4 µM; with HT29 colon, 2.65 µM; in the assay with M14 melanoma, 2.23 µM; with OVCAR-5 ovarian it was 2.99 µM. For the same compound, the figures for the GI50 with OVCAR-8 ovarian, in the assay with SW-620 colon and in the assay on TK-10 renal were 4.09 µM, 1.99 µM and 4.04 µM, respectively. Further, the TGI with 786-0 renal is 6.73 µM; with EKVX NSCLC it was above 61.7 µM; in the assay on HCT-116 colon, 2.83 µM; in the assay on HT29 colon, 7.39 µM; in the assay with M14 melanoma, 6.92 µM; in the assay on OVCAR-5 ovarian, 6.82 µM. In addition, the values for the TGI with OVCAR-8 ovarian, in the assay with SW-620 colon and in the assay on TK-10 renal were 32.2 µM, 5.07 µM and 18.1 µM, respectively.

Regarding `OCCN1CN(CCO)CN(c2nc(N3CN(CCO)CN(CCO)C3)nc(N3CN(CCO)CN(CCO)C3)n2)C1`, the GI50 in the assay on 786-0 renal was 0.631 ng/mL; in the assay with EKVX NSCLC, 1.16 ng/mL; in the assay on M14 melanoma, 1.36 ng/mL; in the assay on TK-10 renal, 2.05 ng/mL. Besides, the TGI was 0.968 ng/mL with 786-0 renal; 2.87 ng/mL with EKVX NSCLC; 0.63 ng/mL with HT29 colon; 3.55 ng/mL in the assay with M14 melanoma; 13.3 ng/mL with OVCAR-8 ovarian; 1.04 ng/mL in the assay on SW-620 colon. For the same compound, the TGI in the assay on TK-10 renal stood at 18.3 ng/mL.

For the compound `CCCCN(CCCC)CC(C(=O)Nc1ccc([N+](=O)[O-])cc1[N+](=O)[O-])/C(C)=N\NC(=S)NN` (centres undefined), the TGI in the assay with 786-0 renal, with EKVX NSCLC, in the assay on HCT-116 colon, with HT29 colon, in the assay on M14 melanoma and in the assay on OVCAR-5 ovarian was above 100 µM in each case. Moreover, the TGI in the assay on OVCAR-8 ovarian, in the assay with SW-620 colon and with TK-10 renal was above 100 µM each time.
